The values below come from patent US7893098B2, “Pyrrole and pyrazole DAAO inhibitors” (Sepracor Inc., priority 2003, dated 2011).

Bounds are passed on as bounds.

Usually IC50 stands for the concentration that gives 50% inhibition.

Purified pig DAAO, sequence (P00371 whole entry): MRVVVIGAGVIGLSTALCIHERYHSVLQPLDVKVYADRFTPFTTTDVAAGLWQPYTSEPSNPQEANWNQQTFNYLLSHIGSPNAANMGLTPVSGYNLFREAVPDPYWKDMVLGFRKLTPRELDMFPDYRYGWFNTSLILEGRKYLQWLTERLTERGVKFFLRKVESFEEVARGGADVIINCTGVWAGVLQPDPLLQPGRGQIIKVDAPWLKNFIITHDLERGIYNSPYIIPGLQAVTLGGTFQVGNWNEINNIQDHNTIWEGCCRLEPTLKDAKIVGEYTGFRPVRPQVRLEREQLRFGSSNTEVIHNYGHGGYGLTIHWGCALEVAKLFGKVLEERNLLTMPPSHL

One series has as its target Purified pig DAAO (Sus scrofa, UniProt P00371). Put plainly: In vitro measurement of DAAO activity (Amplex Red H2O2 / phenylglycine assay). As to conditions: read-out: Inhibition of DAAO, IC50. The series is classed as biochemical. The method, then:
Purified pig DAAO, added to a buffered mixture of 50 mM D-Serine produces H202 in stoichiometric amounts for each D-Serine molecule oxidized. H202 production can be monitored with a commercially available dye Amplex Red, which in the presence of H202, is converted to the fluorescent product resorufin. For each described inhibitor, the fluorescence was also measured during additions of 80 μM H202 in the absence of DAAO, to control for artifactual inhibition of the dye conversion, and to quantify the amount of H202 produced. In an alternative assay of DAAO activity, the purified pig DAAO is added to buffered mixture of 1 mM phenylglycine in the presence of compounds. The activity of DAAO is monitored spectrophotometrically by its enzymatic conversion of phenylglycine to benzoylformic acid with optical absorption at 252 nm.
Inhibitors of DAAO's enzymatic cycle were serially diluted to reduce the level of inhibition. The parameters of a non-linear equation were adjusted to fit the resulting series of inhibition levels to extrapolate the concentration of compound where 50% inhibition is achieved (IC50). These numbers are averaged for the number (n) of independent measurements (on separate days) of the inhibition.
For the compound `O=C(O)c1cc(CCc2ccccc2)c[nH]1`, the IC50 is under 1 µM.

For `CC1CCc2c(C(=O)O)n[nH]c2C1` (centres unmarked), the IC50 is under 100 µM.

As for `O=C(O)c1n[nH]c2c1CCCC2`, the IC50 is under 1 µM.

Regarding `CC(C)c1cc(C(=O)O)n[nH]1`, the IC50 is under 1 µM.

As for `O=C(O)c1cc([N+](=O)[O-])[nH]n1`, the IC50 was under 1 µM.

With `O=C(O)c1n[nH]cc1[N+](=O)[O-]`, the IC50 was under 1 µM.

Take `CC1CCCc2c(C(=O)O)n[nH]c21` (centres unmarked): the IC50 was under 10 µM.

For the compound `O=C(O)c1cc(CCc2ccccc2)on1`, the IC50 is under 100 µM.

`O=C(Cc1ccc(Cl)cc1)c1c[nH]c(C(=O)O)c1`: the 50% inhibitory concentration (IC50) was under 100 µM.

As to `Cc1cc(C(=O)O)no1`, the IC50 was under 100 µM.

`O=C(O)c1n[nH]c2c1CCCC2C1CCCCC1` (centres unmarked): the IC50 is under 100 µM.

For `O=C(O)c1cc[nH]n1`, the half-inhibitory concentration (IC50) is under 100 µM.

With `CCCCCCCCCCC(=O)c1c[nH]c(C(=O)O)c1`, the IC50 was under 100 µM.

As to `O=C(O)c1n[nH]c2c1CCCCCC2`, the IC50 is under 10 µM.

`Cc1cc(C(=O)O)n[nH]1`: the IC50 was under 10 µM.

As for `O=C(O)c1ccc[nH]1`, the IC50 was under 10 µM.

On to `O=C(O)c1cc2c([nH]1)CCCC2`, for which the IC50 is under 10 µM.

Take `O=C(O)c1n[nH]c2c1COCC2`: the IC50 was under 10 µM.

On to `CC(C)C1CCc2[nH]nc(C(=O)O)c2C1` (centres unmarked), for which the IC50 is under 100 µM.

On to `O=C(O)c1n[nH]c2c1CCCC2CCc1ccccc1` (centres unmarked), for which the IC50 was under 100 µM.

Take `O=C(O)c1n[nH]c2c1CC(OCc1ccccc1)CC2` (centres unmarked): the IC50 is under 100 µM.

In the case of `O=C(Cc1ccccc1)c1c[nH]c(C(=O)O)c1`, the IC50 was under 100 µM.

Regarding `CC(=O)c1c[nH]c(C(=O)O)c1`, the IC50 is under 100 µM.

Turning to `Cc1cc(C)c(C(=O)O)[nH]1`, the IC50 was over 100 µM.

Take `O=C(O)c1n[nH]c2c1CCCC2Cc1ccccc1` (centres unmarked): the IC50 was under 10 µM.

`CC1CCc2[nH]nc(C(=O)O)c2C1` (centres unmarked): the IC50 was under 10 µM.

With `O=C(O)c1n[nH]c2c1CCc1ccccc1-2`, the IC50 was over 100 µM.

As for `CC1(C)CCc2c(C(=O)O)n[nH]c21` [Compound 3, 6,6-Dimethyl-1,4,5,6-tetrahydrocyclopentapyrazole-3-carboxylic acid], the IC50 was under 10 µM.

For the compound `CC1CCc2c(C(=O)O)n[nH]c21` (centres unmarked) [Compound 6, 6-methyl-1,4,5,6-tetrahydrocyclopentapyrazole-3-carboxylic acid], the IC50 is under 10 µM.

As to `O=C(O)c1n[nH]c2c1CCCCC2` [Compound 15, 1,4,5,6,7,8-Hexahydrocycloheptapyrazole-3-carboxylic acid], the IC50 is under 10 µM.

With `CC(C)CCCc1cc(C(=O)O)n[nH]1` [Compound 18, 5-(4-methylpentyl)-1H-pyrazole-3-carboxylic acid], the half-maximal inhibitory concentration (IC50) is under 1 µM.

For `O=C(O)c1cc(CCc2ccccc2)[nH]n1` [Compound 21, 5-phenethyl-1H-pyrazole-3-carboxylic acid], the IC50 was under 1 µM.

In the case of `COc1ccc(CCc2cc(C(=O)O)n[nH]2)cc1` [Compound 24, 5-[2-(4-Methoxyphenyl)-ethyl]-1H-pyrazole-3-carboxylic acid], the IC50 was under 1 µM.

With `O=C(O)c1ccc(Cc2ccccc2)[nH]1` [Compound 32, 5-benzyl-1H-pyrrole-2-carboxylic acid], the 50% inhibitory concentration (IC50) is over 100 µM.

Turning to `O=C(O)c1ccc(CCc2ccccc2)[nH]1` [Compound 36, 5-phenethyl-1H-pyrrole-2-carboxylic acid], the IC50 was under 100 µM.

With `O=C(O)c1cc(COc2ccccc2)[nH]n1` [Compound 42, 5-phenoxymethyl-1H-pyrazole-3-carboxylic acid], the IC50 is under 1 µM.

For `O=C(O)c1cc(CCCc2ccccc2)c[nH]1` [Compound 45, 4-(3-phenylpropyl)-1H-pyrrole-2-carboxylic acid], the IC50 is under 100 µM.

`CC(C)CCc1cc(C(=O)O)n[nH]1` [Compound 48, 5-(3-methylbutyl)-1H-pyrazole-3-carboxylic acid]: the IC50 was under 10 µM.

With `CC(C)=CCCc1cc(C(=O)O)n[nH]1` [Compound 51, 5-(4-Methylpent-3-enyl)-1H-pyrazole-3-carboxylic acid], the IC50 is under 1 µM.

Consider `CC1CCCC(C)(C)C1CCc1cc(C(=O)O)n[nH]1` (centres unmarked) [Compound 54, 5-[2-(2,2,6-trimethylcyclohexyl)-ethyl]-1H-pyrazole-3-carboxylic acid], for which the half-maximal inhibitory concentration (IC50) was under 100 µM.

For the compound `CC(Cc1cc(C(=O)O)n[nH]1)c1ccccc1` (centres unmarked) [Compound 58, 5-(2-phenylpropyl)-1H-pyrazole-3-carboxylic acid], the IC50 was under 1 µM.

With `CC(Cc1ccccc1)c1cc(C(=O)O)n[nH]1` (centres unmarked) [Compound 62, 5-(1-methyl-2-phenylethyl)-1H-pyrazole-3-carboxylic acid], the IC50 is under 1 µM.

Take `O=C(O)c1cc(CCc2ccccc2Br)c[nH]1` [Compound 65, 4-[2-(2-bromophenyl)-ethyl]-1H-pyrrole-2-carboxylic acid]: the half-inhibitory concentration (IC50) was under 1 µM.

Take `O=C(O)c1cc(CCc2ccc(Cl)cc2)n[nH]1` [Compound 69, 5-[2-(4-Chlorophenyl)-ethyl]-1H-pyrazole-3-carboxylic acid]: the IC50 is under 1 µM.

As to `O=C(O)c1cc(CCc2ccc(Cl)cc2)c(Br)[nH]1` [Compound 70, 5-bromo-4-[2-(4-chlorophenyl)-ethyl]-1H-pyrrole-2-carboxylic acid], the half-maximal inhibitory concentration (IC50) is under 0.1 µM.

With `O=C(O)c1cc(CCc2ccc(F)cc2)c[nH]1` [Compound 73, 4-[2-(4-fluorophenyl)-ethyl]-1H-pyrrole-2-carboxylic acid], the IC50 is under 1 µM.

Regarding `O=C(O)c1cc(CCCC2CCCC2)c[nH]1` [Compound 76, 4-(3-Cyclopentylpropyl)-1H-pyrrole-2-carboxylic acid], the IC50 was under 10 µM.

Take `C[C@@H](Cc1cc(C(=O)O)n[nH]1)c1ccccc1` [Compound 80, (S)-5-(2-phenylpropyl)-1H-pyrazole-3-carboxylic acid]: the IC50 is under 10 µM.

In the case of `O=C(O)c1n[nH]c2c1CCC2` [drawing 44], the IC50 is under 1 µM.

System in the next series: not listed separately
Nature of the series: Rat brain uptake, carotid perfusion. It counts as in vivo. The following applies: 30 second perfusion into left hemisphere, PBS pH 7.4; N of 4 rats. From the text:
Experiments that evaluate the rat brain penetration of test compounds use a perfusion system where the left carotid artery is cannulated and the branch arteries are tied off. The test compound plus internal controls are perfused for 30 seconds into the left hemisphere in phosphate buffered saline at pH 7.4. The internal controls are atenolol (with low brain uptake) and antipyrine (with high brain uptake). After a 30 second washout with perfusate, the brain is removed surgically. The left hemisphere is homogenized; test compounds (plus internal controls) are extracted from brain homogenate, and analyzed using LC/MS/MS to determine the concentration of test compound and internal controls in the brain.
Consider `CC(C)CCCc1cc(C(=O)O)n[nH]1` [Compound 18, 5-(4-methylpentyl)-1H-pyrazole-3-carboxylic acid], for which the “Rat Brain Uptake Rate, pmol/g brain/sec” value is 17 pmol/g brain/sec.

Regarding `O=C(O)c1cc(CCc2ccccc2)[nH]n1` [Compound 21, 5-phenethyl-1H-pyrazole-3-carboxylic acid], the “Rat Brain Uptake Rate, pmol/g brain/sec” value was 6 pmol/g brain/sec.

For `O=C(O)c1cc(CCc2ccc(Cl)cc2)c[nH]1` [Compound 39, 4-[2-(4-chlorophenyl)-ethyl]-1H-pyrrole-2-carboxylic acid], the “Rat Brain Uptake Rate, pmol/g brain/sec” value was found to be 204 pmol/g brain/sec.

Take `O=C(O)c1n[nH]c2c1CCC2` [drawing 70]: the “Rat Brain Uptake Rate, pmol/g brain/sec” value is 6 pmol/g brain/sec.
